# Assay results reported in patent US20230265151A1, “GIP/GLP1 CO-AGONIST COMPOUNDS” (priority 2020, published 2023).
# Where two headings read alike, the source gives them in different places. *1 amine or outer side, *2 acyl side, *3 side chain or, on linkers, in order; H or OH if unused. Where a SMILES comes first, the peptide text is derived from it. Side-chain parts run from the residue outwards. [ ]: non-standard residue; d: D form. The star is where a group is joined. αMePhe(2-F) = C[C@](N)(Cc1ccccc1F)C(=O)O; γGlu = O=C(O)[C@H](CCC(=O)[*:2])N[*:1]; αMeY = C[C@](N)(Cc1ccc(O)cc1)C(=O)O; αMeF = C[C@](N)(Cc1ccccc1)C(=O)O; 4Pal = N[C@@H](Cc1ccncc1)C(=O)O; αMeL = CC(C)C[C@](C)(N)C(=O)O; Lauroyl = CCCCCCCCCCCC(=O)*; Orn = NCCC[C@H](N)C(=O)O; AEEA = NCCOCCOCC(=O)O; Aib = CC(C)(N)C(=O)O
# Legend:
# Format in all cases: cell-based
# [1] = biological target: hGLP-1R (Homo sapiens, UniProt P43220); assay: Functional cAMP formation (HTRF) in HEK-293 clonal cells expressing hGLP-1R, 0.1% bovine casein, without or with 1.0% human serum albumin; set-up: expressed in transfected cells; details: 37° C.; for EC50: geometric mean; for Emax: HEK293, cAMP, percent of maximal response to GLP-1(7-36)NH2, read-out: hGLP-1R Emax, % ± SEM
# Sequence of hGLP-1R (P43220 24-463): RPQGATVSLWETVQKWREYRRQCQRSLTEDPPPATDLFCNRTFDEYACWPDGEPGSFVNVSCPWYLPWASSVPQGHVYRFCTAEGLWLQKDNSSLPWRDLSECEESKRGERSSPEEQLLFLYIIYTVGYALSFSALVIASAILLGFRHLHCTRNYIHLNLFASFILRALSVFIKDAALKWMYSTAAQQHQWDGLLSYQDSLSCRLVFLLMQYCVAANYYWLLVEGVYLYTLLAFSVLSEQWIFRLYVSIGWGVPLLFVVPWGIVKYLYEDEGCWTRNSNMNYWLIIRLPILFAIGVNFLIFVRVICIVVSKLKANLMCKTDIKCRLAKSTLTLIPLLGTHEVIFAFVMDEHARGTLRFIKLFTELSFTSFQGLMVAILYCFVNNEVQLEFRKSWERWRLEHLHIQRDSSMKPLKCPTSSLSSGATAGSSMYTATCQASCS
# Procedure, shortened: (§1)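 Readings of the HTRF 665/620 nm ratio, which falls as cAMP rises, were converted to nM cAMP using a standard curve after 30 min peptide exposure at 37° C.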
# [2] = biological target: T1, hGCGR (Homo sapiens, UniProt P47871); assay: Functional cAMP formation (HTRF) in HEK-293 clonal cells expressing hGCGR, 0.1% bovine casein, without or with 1.0% human serum albumin
# T1 construct: expressed in transfected cells
# T1 sequence (P47871 26-477): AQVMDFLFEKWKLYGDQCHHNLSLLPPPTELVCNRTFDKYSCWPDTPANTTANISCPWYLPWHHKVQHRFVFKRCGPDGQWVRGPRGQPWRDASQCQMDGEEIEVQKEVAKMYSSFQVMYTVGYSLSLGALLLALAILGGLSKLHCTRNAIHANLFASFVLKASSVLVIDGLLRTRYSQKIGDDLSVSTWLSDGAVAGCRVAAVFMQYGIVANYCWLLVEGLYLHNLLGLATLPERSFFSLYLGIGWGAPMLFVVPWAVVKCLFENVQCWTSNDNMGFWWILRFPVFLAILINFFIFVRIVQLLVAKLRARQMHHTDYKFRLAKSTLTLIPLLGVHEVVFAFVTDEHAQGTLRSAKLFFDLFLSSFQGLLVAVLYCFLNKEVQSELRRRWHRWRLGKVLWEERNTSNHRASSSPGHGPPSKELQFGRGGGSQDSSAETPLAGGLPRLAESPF
# Procedure, shortened: as §1
# [3] = biological target: T2, hGIPR (Homo sapiens, UniProt P48546); assay: Functional cAMP formation (HTRF) in HEK-293 clonal cells expressing hGIPR, 0.1% bovine casein, without or with 1.0% human serum albumin; details: for EC50: geometric mean
# T2 construct: expressed in transfected cells
# T2 sequence (P48546 22-466): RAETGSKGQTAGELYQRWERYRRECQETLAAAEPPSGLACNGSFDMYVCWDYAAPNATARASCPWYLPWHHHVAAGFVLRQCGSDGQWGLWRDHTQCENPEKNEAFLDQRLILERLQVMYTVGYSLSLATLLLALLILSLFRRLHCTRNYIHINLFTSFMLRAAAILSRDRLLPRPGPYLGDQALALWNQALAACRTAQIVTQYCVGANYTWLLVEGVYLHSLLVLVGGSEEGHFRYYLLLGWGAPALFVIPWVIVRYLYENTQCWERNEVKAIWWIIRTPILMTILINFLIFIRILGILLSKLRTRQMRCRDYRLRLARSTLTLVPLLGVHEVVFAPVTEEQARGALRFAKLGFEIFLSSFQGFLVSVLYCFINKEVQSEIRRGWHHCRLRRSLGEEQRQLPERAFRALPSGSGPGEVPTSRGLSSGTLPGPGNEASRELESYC
# Procedure, shortened: as §1
# [4] = 0.1% bovine casein and 1.0% human serum albumin, 37° C., geometric mean, read-out: hGCGR EC50, nM (SEM, n)
# [5] = 0.1% bovine casein, arithmetic mean
# [6] = cAMP, 0.1% bovine casein (no human serum albumin), read-out: hGLP-1R EC50, nM (SEM, n)
# [7] = cAMP, 37° C., 0.1% bovine casein (no human serum albumin), geometric mean, read-out: hGCGR EC50, nM (SEM, n)
compound,measurement,setting,value
CC[C@H](C)[C@H](NC(=O)[C@H](CC(C)C)NC(=O)[C@](C)(Cc1ccc(O)cc1)NC(=O)[C@@H](CCC(=O)O)NC(=O)[C@@H](NC(=O)[C@H](Cc1ccccc1)NC(=O)[C@H](CCC(=O)O)NC(=O)C(C)(C)NC(=O)[C@H](CCC(N)=O)NC(=O)[C@H](C)NC(=O)[C@H](CCCCNC(=O)COCCOCCNC(=O)COCCOCCNC(=O)CCCCCCCCCCCCC(=O)O)NC(=O)[C@H](CCCN)NC(=O)[C@H](CC(=O)O)NC(=O)[C@H](CC(C)C)NC(=O)[C@](C)(CC(C)C)NC(=O)[C@@H](NC(=O)[C@H](CO)NC(=O)[C@H](Cc1ccncc1)NC(=O)[C@H](CC(=O)O)NC(=O)[C@H](CO)NC(=O)[C@@H](NC(=O)[C@](C)(Cc1ccccc1F)NC(=O)[C@@H](NC(=O)CNC(=O)[C@H](CCC(=O)O)NC(=O)C(C)(C)NC(=O)[C@@H](N)Cc1ccc(O)cc1)[C@@H](C)O)[C@@H](C)O)[C@@H](C)CC)[C@@H](C)CC)C(=O)N[C@@H](CCC(=O)O)C(=O)NCC(=O)NCC(=O)N[C@@H](CCCCNC(=O)COCCOCCNC(=O)COCCOCCNC(=O)CCCCCCCCCCCCC(=O)O)C(=O)N[C@@H](CO)C(=O)N[C@@H](CO)C(=O)NCC(=O)N[C@@H](C)C(=O)N1CCC[C@H]1C(=O)N1CCC[C@H]1C(=O)N1CCC[C@H]1C(=O)N[C@@H](CO)C(N)=O [Example 9],EC50,"[1]; 0.1% bovine casein and 1.0% human serum albumin, read-out: hGLP-1R EC50, nM (SEM, n)",8.82 nM
same,EC50,[2]; [4],> 9950 nM
same,EC50,"[2]; cAMP, incubated at 37° C., 0.1% bovine casein (no human serum albumin), geometric mean, read-out: hGCGR EC50, nM (SEM, n)",> 9950 nM
same,EC50,"[3]; 0.1% bovine casein and 1.0% human serum albumin, 37° C., read-out: hGIPR EC50, nM (SEM, n)",0.211 nM
same,Emax,"[3]; HEK293, 0.1% bovine casein and 1.0% human serum albumin, 37° C., percent of maximal response to GIP(1-42)NH2, read-out: hGIPR Emax, % ± SEM",91.6 ± 4.63%
same,Emax,"[3]; HEK293, percent of maximal response to GIP(1-42)NH2, 37° C., 0.1% bovine casein, arithmetic mean, read-out: hGIPR Emax, % ± SEM",93.6 ± 2.36%
same,EC50,"[3]; cAMP, incubated at 37° C., 0.1% bovine casein (no human serum albumin), read-out: hGIPR EC50, nM (SEM, n)",0.0102 nM
CC[C@H](C)[C@H](NC(=O)[C@H](CC(C)C)NC(=O)[C@](C)(Cc1ccc(O)cc1)NC(=O)[C@@H](CCC(=O)O)NC(=O)[C@@H](NC(=O)[C@H](Cc1ccccc1)NC(=O)[C@H](CCC(=O)O)NC(=O)C(C)(C)NC(=O)[C@H](CCC(N)=O)NC(=O)[C@H](C)NC(=O)[C@H](CCCCNC(=O)COCCOCCNC(=O)COCCOCCNC(=O)CCCCCCCCCOc1ccc(C(=O)O)cc1)NC(=O)[C@H](CCCN)NC(=O)[C@H](CC(=O)O)NC(=O)[C@H](CC(C)C)NC(=O)[C@](C)(CC(C)C)NC(=O)[C@@H](NC(=O)[C@H](CO)NC(=O)[C@H](Cc1ccncc1)NC(=O)[C@H](CC(=O)O)NC(=O)[C@H](CO)NC(=O)[C@@H](NC(=O)[C@](C)(Cc1ccccc1F)NC(=O)[C@@H](NC(=O)CNC(=O)[C@H](CCC(=O)O)NC(=O)C(C)(C)NC(=O)[C@@H](N)Cc1ccc(O)cc1)[C@@H](C)O)[C@@H](C)O)[C@@H](C)CC)[C@@H](C)CC)C(=O)N[C@@H](CCC(=O)O)C(=O)NCC(=O)NCC(=O)N[C@@H](CCCCNC(=O)COCCOCCNC(=O)COCCOCCNC(=O)CCCCCCCCCOc1ccc(C(=O)O)cc1)C(=O)N[C@@H](CO)C(=O)N[C@@H](CO)C(=O)NCC(=O)N[C@@H](C)C(=O)N1CCC[C@H]1C(=O)N1CCC[C@H]1C(=O)N1CCC[C@H]1C(=O)N[C@@H](CO)C(N)=O [Example 10],EC50,"[1]; hGLP-1R EC50, nM (SEM, n), 0.1% bovine casein and 1.0% human serum albumin",4.38 nM
same,EC50,"[2]; hGCGR EC50, nM (SEM, n), 0.1% bovine casein and 1.0% human serum albumin, 37° C., geometric mean",> 9950 nM
same,EC50,"[2]; hGCGR EC50, nM (SEM, n), cAMP, incubated at 37° C., 0.1% bovine casein (no human serum albumin), geometric mean",> 9950 nM
same,Emax,"[3]; HEK293, read-out: hGIPR Emax, % ± SEM, 0.1% bovine casein and 1.0% human serum albumin, 37° C., percent of maximal response to GIP(1-42)NH2",84.9 ± 1.84%
same,Emax,"[3]; HEK293, read-out: hGIPR Emax, % ± SEM, percent of maximal response to GIP(1-42)NH2, 37° C., 0.1% bovine casein, arithmetic mean",97.9 ± 1.99%
same,EC50,"[3]; hGIPR EC50, nM (SEM, n), 0.1% bovine casein and 1.0% human serum albumin, 37° C.",0.121 nM
same,EC50,"[3]; hGIPR EC50, nM (SEM, n), cAMP, incubated at 37° C., 0.1% bovine casein (no human serum albumin)",0.0106 nM
CC[C@H](C)[C@H](NC(=O)[C@H](CC(C)C)NC(=O)[C@](C)(Cc1ccc(O)cc1)NC(=O)[C@@H](CCC(=O)O)NC(=O)[C@@H](NC(=O)[C@H](Cc1ccccc1)NC(=O)[C@H](CCC(=O)O)NC(=O)C(C)(C)NC(=O)[C@H](CCC(N)=O)NC(=O)[C@H](C)NC(=O)[C@H](CCCCNC(=O)COCCOCCNC(=O)COCCOCCNC(=O)CC[C@H](NC(=O)CCCCCCCCCCCCC(=O)O)C(=O)O)NC(=O)[C@H](CCCN)NC(=O)[C@H](CC(=O)O)NC(=O)[C@H](CC(C)C)NC(=O)[C@](C)(CC(C)C)NC(=O)[C@@H](NC(=O)[C@H](CO)NC(=O)[C@H](Cc1ccc2ccccc2c1)NC(=O)[C@H](CC(=O)O)NC(=O)[C@H](CO)NC(=O)[C@@H](NC(=O)[C@](C)(Cc1ccccc1F)NC(=O)[C@@H](NC(=O)CNC(=O)[C@H](CCC(=O)O)NC(=O)C(C)(C)NC(=O)[C@@H](N)Cc1ccc(O)cc1)[C@@H](C)O)[C@@H](C)O)[C@@H](C)CC)[C@@H](C)CC)C(=O)N[C@@H](CCCCNC(=O)COCCOCCNC(=O)COCCOCCNC(=O)CC[C@H](NC(=O)CCCCCCCCCCCCC(=O)O)C(=O)O)C(=O)NCC(=O)NCC(=O)N1CCC[C@H]1C(=O)N[C@@H](CO)C(=O)N[C@@H](CO)C(=O)NCC(=O)N[C@@H](C)C(=O)N1CCC[C@H]1C(=O)N1CCC[C@H]1C(=O)N1CCC[C@H]1C(=O)N[C@@H](CO)C(N)=O [Example 250],Emax,[1]; [5],114%
same,EC50,[1]; [6],0.414 nM
same,EC50,[2]; [4],> 9950 nM
same,EC50,[2]; [7],> 9950 nM
CCCCCCCCCCCC(=O)N[C@@H](CCC(=O)NCCOCCOCC(=O)NCCOCCOCC(=O)NCCOCCOCC(=O)NCCCC[C@H](NC(=O)[C@H](CO)NC(=O)[C@@H]1CCCN1C(=O)[C@@H]1CCCN1C(=O)[C@@H]1CCCN1C(=O)[C@H](C)NC(=O)CNC(=O)[C@H](CO)NC(=O)[C@H](CO)NC(=O)[C@@H]1CCCN1C(=O)CNC(=O)CNC(=O)[C@H](CCC(=O)O)NC(=O)[C@@H](NC(=O)[C@H](CC(C)C)NC(=O)[C@](C)(Cc1ccc(O)cc1)NC(=O)[C@@H](CCC(=O)O)NC(=O)[C@@H](NC(=O)[C@](C)(Cc1ccccc1)NC(=O)[C@H](CCC(=O)O)NC(=O)C(C)(C)NC(=O)[C@H](CCC(N)=O)NC(=O)[C@H](C)NC(=O)[C@H](CCCCNC(=O)COCCOCCNC(=O)COCCOCCNC(=O)COCCOCCNC(=O)CC[C@H](NC(=O)CCCCCCCCCCC)C(=O)O)NC(=O)[C@H](CCCN)NC(=O)[C@H](CC(=O)O)NC(=O)[C@H](CC(C)C)NC(=O)[C@](C)(CC(C)C)NC(=O)[C@@H](NC(=O)C(C)(C)NC(=O)[C@H](Cc1ccncc1)NC(=O)[C@H](CC(=O)O)NC(=O)[C@H](CO)NC(=O)[C@@H](NC(=O)[C@](C)(Cc1ccccc1F)NC(=O)[C@@H](NC(=O)CNC(=O)[C@H](CCC(=O)O)NC(=O)C(C)(C)NC(=O)[C@@H](N)Cc1ccc(O)cc1)[C@@H](C)O)[C@@H](C)O)[C@@H](C)CC)[C@@H](C)CC)[C@@H](C)CC)C(N)=O)C(=O)O [Example 439] (H-Y[Aib]EGT[αMePhe(2-F)]TSD[4Pal][Aib]I[αMeL]LD[Orn]K([AEEA-AEEA-AEEA-γGlu-Lauroyl])AQ[Aib]E[αMeF]I[dE][αMeY]LIEGGPSSGAPPPSK([AEEA-AEEA-AEEA-γGlu-Lauroyl])-NH2),Emax,[1]; 0.1% bovine casein and 1.0% human serum albumin,97%
same,Emax,[1]; [5],95.7%
same,EC50,[1]; [6],0.11 nM
same,EC50,[2]; [7],> 9950 nM
same,EC50,"[2]; cAMP, 37° C., 0.1% bovine casein and 1.0% human serum albumin, geometric mean (SEM, n), read-out: hGCGR EC50, nM (SEM, n)",> 9950 nM
